Values after ≈ are worked out from the molar mass of the structure shown.
Experiments:
[1] = test system: MRSA ATCC 33592; experiment: MIC, broth macrodilution (CLSI); format: cell-based, methicillin-resistant Staphylococcus aureus; conditions: MRSA ATCC33592
Method: (§1) All experiments were performed in duplicate.
(§2) Bacterial isolates studied included both reference strains obtained from the American Type Culture Collection (ATCC) as well as clinical strains obtained from the CAN-ICU study which was a national surveillance study assessing the prevalence of antimicrobial resistant pathogens in Canadian intensive care units (Zhanel et al., 2008). Isolates were kept frozen in skim milk at −80° C. until minimum inhibitory concentration (MIC) testing was carried out. Following two subcultures from frozen stock, the in vitro activities of peptides were determined by macrobroth dilution in accordance with the Clinical and Laboratory Standards Institute (CLSI) 2006 guidelines (Zhanel et al., 2008). Stock solutions of peptides were prepared and dilutions made as described by CLSI. Test tubes contained doubling antimicrobial dilutions of cation adjusted Mueller-Hinton broth and inoculated to achieve a final concentration of approximately 5×10^5 cfu/ml then incubated in ambient air for 24 hours prior to reading. Colony counts were performed periodically to confirm inocula. Quality control was regularly performed using ATCC QC organisms.

[2] = test system: P. aeruginosa ATCC 27853; experiment: MIC, broth macrodilution (CLSI); format: cell-based; conditions: P. aeruginosa ATCC27853
Method: as §1, §2

[3] = test system: E. coli ATCC 25922; experiment: MIC, broth macrodilution (CLSI); format: cell-based; conditions: E. coli ATCC25922
Method: as §1, §2

[4] = test system: E. coli (gentamicin-resistant) CAN-ICU 61714; experiment: MIC, broth macrodilution (CLSI); format: cell-based; conditions: E. coli CAN-ICU 61714
Method: as §1, §2

[5] = test system: P. aeruginosa (gentamicin-resistant) CAN-ICU 62308; experiment: MIC, broth macrodilution (CLSI); format: cell-based; conditions: P. aeruginosa CAN-ICU 62308
Method: as §1, §2

[6] = test system: MRSE CAN-ICU 61589; experiment: MIC, broth macrodilution (CLSI); format: cell-based, methicillin-resistant Staphylococcus epidermidis
Method: as §1, §2

[7] = test system: methicillin-resistant S. aureus (MRSA); conditions: Bera et al., 2008; cited from earlier work
[8] = test system: S. epidermidis ATCC 14990; experiment: MIC, broth macrodilution (CLSI); format: cell-based, Staphylococcus epidermidis; conditions: S. epidermidis ATCC14990
Method: as §1, §2

[9] = test system: sheep red blood cell (erythrocytes); experiment: Hemolytic assay (in vitro toxicity); conditions: 100 mg/L; sheep erythrocytes; percent hemolysis
Method: Antibacterial activity against Gram-positive and Gram-negative microorganisms was tested via broth macrodilution tests using CLSI methodology (Zhanel et al., 2008). Stock solutions of cationic lipids in water were brought to a concentration of 512 mg/L. Organisms were subcultured and isolated on blood agar, suspended in 3 mL of Mueller-Hinton broth at the turbidity of a […], and diluted to approximately 10^5 cfu/mL before introduction into tubes containing serially diluted lipopeptide antibiotic in Mueller-Hinton broth. Activity testing against S. pneumoniae used broth supplemented with laked horse blood to give 5% horse blood in experimental tubes. Turbidity of lipopeptide solution in broth required creation of control tubes lacking organisms serving as turbidity controls. All tubes were incubated overnight for 16-20 h at 37° C. […] All experiments were performed in duplicate. In-vitro toxicity was determined using a sheep red blood cell hemolytic assay as previously described (Dathe et al., 1996).
In vitro toxicity was determined using a sheep red blood cell (erythrocytes) hemolytic assay (Dathe et al., 1996). […] Erythrocytes were washed and resuspended in Tris buffered saline. The cell suspension was combined with varying concentrations (low to very high) of test and control antimicrobials (e.g., aminoglycosides and APTCs). The samples were centrifuged and the absorbance of the supernatants measured at 540 nm. Tris buffered saline and Triton X were used as negative and positive controls, respectively. The toxicity was assessed by percent hemolysis.

[10] = test system: S. pneumoniae ATCC 49619; experiment: MIC, broth macrodilution (CLSI), broth with 5% laked horse blood; format: cell-based, Streptococcus pneumoniae; conditions: S. pneumoniae ATCC49619
Method: as §1, §2

[11] = test system: S. aureus ATCC 29213; experiment: MIC, broth macrodilution (CLSI); format: cell-based, Staphylococcus aureus; conditions: S. aureus ATCC29213
Method: as §1, §2

[12] = test system: E. coli (amikacin MIC 32 mg/L) CAN-ICU 63074; conditions: E. coli CAN-ICU 63074; Zhanel et al., 2008; cited from earlier work

Row | SMILES | MIC [1] | MIC [2] | MIC [3] | MIC [4] | MIC [5] | MIC [6] | MIC [7] | MIC [8] | hemolytic activity at 100 mg/L [9] | MIC [10] | MIC [11] | MIC (strain description) [12]
1 | NC[C@@H]1O[C@H](O[C@H]2[C@@H](O)[C@H](O[C@@H]3[C@@H](O)[C@H](N)C[C@H](N)[C@H]3O[C@H]3O[C@H](CN)[C@@H](O)[C@H](O)[C@H]3N)O[C@@H]2CO)[C@H](N)[C@@H](O)[C@@H]1O [Neomycin B, reference compound] | 256 µg/mL (≈ 416 µM) | 512 µg/mL (≈ 833 µM) | 4 µg/mL (≈ 6.51 µM) | 8 µg/mL (≈ 13 µM) | 512 µg/mL (≈ 833 µM) | 0.5 µg/mL (≈ 0.813 µM) | 256 µg/mL (≈ 416 µM) | 0.25 µg/mL (≈ 0.407 µM) | <0.3% | 32 µg/mL (≈ 52.1 µM) | 1 µg/mL (≈ 1.63 µM) | 
2 | NCC[C@H](O)C(=O)N[C@@H]1C[C@H](N)[C@@H](O[C@H]2O[C@H](CN)[C@@H](O)[C@H](O)[C@H]2O)[C@H](O)[C@H]1O[C@H]1O[C@H](CO)[C@@H](O)[C@H](N)[C@H]1O [amikacin] |  |  |  |  |  |  |  |  |  |  |  | 32 µg/mL (≈ 54.6 µM)
